Measured values taken from patent publication US20140179766A1, “IDENTIFICATION OF THROMBOSIS OR BLEEDING RISK IN AN INDIVIDUAL WITH AND WITHOUT ANTI-PLATELET THERAPY” (ROYAL COLLEGE OF SURGEONS IN IRELAND, priority 2011, published 2014).

System: 11-dehydro-thromboxane B2 (TxM)
Test: Urinary TxM (11-dehydro-thromboxane B2) by liquid chromatography/tandem mass spectrometry in participants of the HACVD sub-study of ASCOT
Type: in vivo, human
Settings: SNP association with TxM seen only in patients not taking aspirin
Protocol: The genetic determinants of urinary TxM were investigated. 540 participants in the Hypertension Associated Cardiovascular Disease (HACVD) sub-study of ASCOT gave urine samples at two separate time-points. TxM was measured using liquid chromatography/tandem mass spectrometry, expressed as pg/mg creatinine to correct for urine concentration. All subjects were genotyped on the CVD50K chip, a cardiovascular-specific chip with >50,000 SNPs. Usual quality control measures were applied. Linear regression analysis was performed, assuming an additive genetic model, adjusting for the covariates; age, sex, smoking habit, diabetes, systolic blood pressure, BMI, HDL, LDL, aspirin and anti-hypertensive regimen.
Most interesting of all was the observation that the association of TxM with the 21 PPARGC1β gene SNPs was almost totally driven by the patients not taking aspirin (beta-values range; +184-+392 pg/mg p-values range; 0.00002-0.06), whilst associations between these same 21 SNPs and TxM amongst aspirinated subjects were in large part not statistically significant (beta-values range; −10-+134 pg/mg p-values range; 0.02-0.97).

Question: CC(=O)Oc1ccccc1C(=O)O [aspirin] was tested. Which “Effect on excess production of thromboxane in carriers of PPARGC1β genetic variants” value did it give?
Answer: completely, or in large part, blocks the excess production of thromboxane
